Laboratory results taken from patent US9938261B2, “Heterocyclic compounds and methods of use thereof” (AMBIT BIOSCIENCES CORPORATION, priority 2011, dated 2018).
pIC50, pKd: −log10 of the molar value.

Columns and labels:
FLT3 = biological target: T1, FLT3 (Homo sapiens, UniProt P36888); experiment: Competition binding assay, FLT3 Kd; conditions: competition binding
T1 construct: made in house
T1 sequence (P36888 27-993): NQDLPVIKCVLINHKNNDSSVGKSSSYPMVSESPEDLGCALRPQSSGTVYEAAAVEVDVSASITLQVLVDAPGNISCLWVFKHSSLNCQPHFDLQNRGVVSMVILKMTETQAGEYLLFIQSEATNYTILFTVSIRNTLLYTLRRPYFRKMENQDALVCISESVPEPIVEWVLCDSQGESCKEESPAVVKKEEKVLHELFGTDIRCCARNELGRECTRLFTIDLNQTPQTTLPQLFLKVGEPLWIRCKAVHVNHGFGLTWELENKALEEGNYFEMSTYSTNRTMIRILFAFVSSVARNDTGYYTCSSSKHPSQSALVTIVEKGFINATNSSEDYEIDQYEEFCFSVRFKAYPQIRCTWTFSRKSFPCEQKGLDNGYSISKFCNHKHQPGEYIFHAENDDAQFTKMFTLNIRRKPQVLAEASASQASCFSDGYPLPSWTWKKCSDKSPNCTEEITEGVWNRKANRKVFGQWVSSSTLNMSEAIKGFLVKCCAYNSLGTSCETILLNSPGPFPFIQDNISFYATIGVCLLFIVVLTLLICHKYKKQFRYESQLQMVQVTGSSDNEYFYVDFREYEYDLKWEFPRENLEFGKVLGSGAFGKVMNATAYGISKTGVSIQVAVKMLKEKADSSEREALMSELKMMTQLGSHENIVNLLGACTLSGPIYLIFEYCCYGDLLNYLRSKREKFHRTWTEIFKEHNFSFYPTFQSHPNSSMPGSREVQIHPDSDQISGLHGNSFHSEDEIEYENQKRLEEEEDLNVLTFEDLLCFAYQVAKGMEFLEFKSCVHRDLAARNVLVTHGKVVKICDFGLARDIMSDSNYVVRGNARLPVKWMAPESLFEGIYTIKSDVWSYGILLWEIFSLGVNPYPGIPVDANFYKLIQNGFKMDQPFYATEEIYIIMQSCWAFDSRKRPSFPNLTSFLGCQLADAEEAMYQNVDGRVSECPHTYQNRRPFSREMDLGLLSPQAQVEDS
Summary of the method: (§1)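 Kinases, either T7 phage fusions or HEK-293-expressed and DNA-tagged, competed with test compounds for immobilized biotinylated affinity ligand on streptavidin beads in binding buffer (20% SeaBlock, 0.17×PBS, 0.05% Tween 20, 6 mM DTT). After 1 hour at room temperature, bead-bound kinase was eluted and quantified by qPCR; Kd from eleven-point threefold dilutions.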

M-NFS-60 cells = experiment: M-NFS-60 cell proliferation assay (Alamar Blue); format: cell-based, mouse; conditions: Mus musculus; M-NFS-60 cell proliferation; read-out: CSF1R M-NFS-60 CTB:IC50
Summary of the method: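 Mouse M-NFS-60 cells growing on 20 ng/mL M-CSF in RPMI/10% FBS were exposed to compounds (9 half-log concentrations, 0.5% DMSO) for 72 h at 37 °C. Viability read by Alamar Blue fluorescence (ex 560/em 590 nm, 3 h). IC50 = 50% proliferation inhibition versus control, mean of duplicates.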

[1] = biological target: kinase panel containing either 386 or 392 distinct kinases; experiment: Kinase selectivity score S10 from competition binding panel; conditions: 10 μM, panel of 386 or 392 distinct kinases
Summary of the method: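 Compounds at 10 μM competed against immobilised affinity ligands for T7 phage-fused or HEK-293-expressed DNA-tagged kinases, 1 h at room temperature; bound kinase eluted and quantified by qPCR. S10 = fraction of distinct non-mutant kinases with percent of DMSO control below 10.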

KIT = biological target: T2, KIT (Homo sapiens, UniProt P10721); experiment: Competition binding assay, KIT Kd; conditions: competition binding
T2 construct: made in house
T2 sequence (P10721 26-976): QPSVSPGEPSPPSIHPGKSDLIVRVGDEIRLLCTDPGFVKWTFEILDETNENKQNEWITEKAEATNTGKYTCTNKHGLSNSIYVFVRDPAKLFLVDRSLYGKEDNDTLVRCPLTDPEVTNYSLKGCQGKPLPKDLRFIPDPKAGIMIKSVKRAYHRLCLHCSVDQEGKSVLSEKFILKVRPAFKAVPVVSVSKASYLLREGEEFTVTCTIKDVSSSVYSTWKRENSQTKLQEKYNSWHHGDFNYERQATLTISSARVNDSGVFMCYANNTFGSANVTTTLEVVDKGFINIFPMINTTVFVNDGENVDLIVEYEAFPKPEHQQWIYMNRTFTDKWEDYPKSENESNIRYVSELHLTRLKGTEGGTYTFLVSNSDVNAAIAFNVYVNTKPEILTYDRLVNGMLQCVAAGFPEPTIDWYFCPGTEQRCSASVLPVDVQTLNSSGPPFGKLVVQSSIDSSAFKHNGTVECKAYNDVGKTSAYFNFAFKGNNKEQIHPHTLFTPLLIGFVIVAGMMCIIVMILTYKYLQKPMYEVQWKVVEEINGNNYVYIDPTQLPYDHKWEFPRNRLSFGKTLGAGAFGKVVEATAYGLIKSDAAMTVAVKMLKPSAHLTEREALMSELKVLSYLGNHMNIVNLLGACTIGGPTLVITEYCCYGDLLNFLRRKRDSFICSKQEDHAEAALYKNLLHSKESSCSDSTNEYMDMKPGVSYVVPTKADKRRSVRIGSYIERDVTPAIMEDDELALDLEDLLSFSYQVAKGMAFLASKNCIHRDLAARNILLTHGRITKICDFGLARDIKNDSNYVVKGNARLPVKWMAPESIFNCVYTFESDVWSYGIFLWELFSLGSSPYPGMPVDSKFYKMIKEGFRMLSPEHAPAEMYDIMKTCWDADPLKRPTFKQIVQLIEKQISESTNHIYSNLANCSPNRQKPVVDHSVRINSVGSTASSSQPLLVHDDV
Summary of the method: as §1

SMILES | pKd (FLT3) | Kinase specificity S(10) [1] | pKd (KIT) | pIC50 (M-NFS-60 cells)
O[C@@H]1CCCC[C@H]1Nc1nc2cc(F)c(Cn3cnc4cccnc43)cc2s1 [Example 154, (1R,2R)-2-((6-((3H-imidazo[4,5-b]pyridin-3-yl)methyl)-5-fluorobenzo[d]thiazol-2-yl)amino)cyclohexanol] | 5.30 to 6.00 | A (A≤0.01) | 5.70 to 6.30 | 6.40 to 7.30
COc1nc2c(cc1C#N)ncn2Cc1ccc2nc(N[C@@H]3CCCC[C@H]3O)sc2c1 [Example 126, 3-((2-(((1R,2R)-2-hydroxycyclohexyl)amino)benzo[d]thiazol-6-yl)methyl)-5-methoxy-3H-imidazo[4,5-b]pyridine-6-carbonitrile] | 6.00 to 6.70 | A (A≤0.01) | 6.30 to 7.00 | 6.40 to 7.30
CC(=O)c1ccc2c(c1)ncn2Cc1ccc2nc(N[C@@H]3CCCC[C@H]3O)sc2c1 [Example 110, 1-(1-((2-(((1R,2R)-2-hydroxycyclohexyl)amino)benzo[d]thiazol-6-yl)methyl)-1H-benzo[d]imidazol-5-yl)ethanone] | 5.30 to 6.00 | A (A≤0.01) | 6.30 to 7.00 | 6.40 to 7.30
O[C@@H]1CCCC[C@H]1Nc1nc2ccc(Cn3cnc4cc(I)cnc43)cc2s1 [Example 146, (1R,2R)-2-((6-((6-iodo-3H-imidazo[4,5-b]pyridin-3-yl)methyl)benzo[d]thiazol-2-yl)amino)cyclohexanol] | 6.00 to 6.70 | B (0.01<B≤0.02) | ≥ 7.00 | 6.40 to 7.30
C#Cc1ccc2ncn(Cc3ccc4nc(N[C@@H]5CCCC[C@H]5O)sc4c3)c2c1 [Example 122, (1R,2R)-2-((6-((6-ethynyl-1H-benzo[d]imidazol-1-yl)methyl)benzo[d]thiazol-2-yl)amino)cyclohexanol] | 6.00 to 6.70 | A (A≤0.01) | 6.30 to 7.00 | 6.40 to 7.30
O[C@@H]1CCCC[C@H]1Nc1nc2ccc(Cn3cnc4cccnc43)c(F)c2s1 [Example 164, (1R,2R)-2-((6-((3H-imidazo[4,5-b]pyridin-3-yl)methyl)-7-fluorobenzo[d]thiazol-2-yl)amino)cyclohexanol] | 5.30 to 6.00 | A (A≤0.01) | < 5.70 | 5.82 to 6.40
N#Cc1ccn2c(Cc3ccc4nc(N[C@@H]5CCCC[C@H]5O)sc4c3)cnc2c1 [Example 117, 3-((2-(((1R,2R)-2-hydroxycyclohexyl)amino)benzo[d]thiazol-6-yl)methyl)imidazo[1,2-a]pyridine-7-carbonitrile] | < 5.30 | A (A≤0.01) | < 5.70 | 5.82 to 6.40
Cn1nnc(-c2ccc3c(c2)ncn3Cc2ccc3nc(N[C@@H]4CCCC[C@H]4O)sc3c2)n1 [Example 227, (1R,2R)-2-((6-((5-(2-methyl-2H-tetrazol-5-yl)-1H-benzo[d]imidazol-1-yl)methyl)benzo[d]thiazol-2-yl)amino)cyclohexanol] | 5.30 to 6.00 | B (0.01<B≤0.02) | 6.30 to 7.00 | ≥ 7.30
CS(=O)(=O)c1ccc2c(c1)ncn2Cc1ccc2nc(N[C@@H]3CCCC[C@H]3O)sc2c1 [Example 112, (1R,2R)-2-((6-((5-(methylsulfonyl)-1H-benzo[d]imidazol-1-yl)methyl)benzo[d]thiazol-2-yl)amino)cyclohexanol] | 5.30 to 6.00 | A (A≤0.01) | 5.70 to 6.30 | < 5.82
COc1ccc2ncc(Cc3ccc4nc(N[C@@H]5CCCC[C@H]5O)sc4c3)n2c1 [Example 165, (1R,2R)-2-((6-((6-methoxyimidazo[1,2-a]pyridin-3-yl)methyl)benzo[d]thiazol-2-yl)amino)cyclohexanol] | < 5.30 | A (A≤0.01) | 5.70 to 6.30 | 5.82 to 6.40
O[C@@H]1CCCC[C@H]1Nc1nc2ccc(Cc3cnc4cccnn34)cc2s1 [Example 131, (1R,2R)-2-((6-(imidazo[1,2-b]pyridazin-3-ylmethyl)benzo[d]thiazol-2-yl)amino)cyclohexanol] | ≥ 6.70 | B (0.01<B≤0.02) | ≥ 7.00 | ≥ 7.30

Continued, in another order:

pKd (FLT3) | Kinase specificity S(10) [1] | pKd (KIT) | SMILES | pIC50 (M-NFS-60 cells)
6.00 to 6.70 | B (0.01<B≤0.02) | ≥ 7.00 | COc1ccc2ncc(Cc3ccc4nc(N[C@@H]5CCCC[C@H]5O)sc4c3)n2n1 [Example 150, (1R,2R)-2-((6-((6-methoxyimidazo[1,2-b]pyridazin-3-yl)methyl)benzo[d]thiazol-2-yl)amino)cyclohexanol] | 6.40 to 7.30
≥ 6.70 | B (0.01<B≤0.02) | ≥ 7.00 | N#Cc1ccc2ncc(Cc3ccc4nc(N[C@@H]5CCCC[C@H]5O)sc4c3)n2n1 [Example 221, 3-((2-(((1R,2R)-2-hydroxycyclohexyl)amino)benzo[d]thiazol-6-yl)methyl)imidazo[1,2-b]pyridazine-6-carbonitrile] | ≥ 7.30
5.30 to 6.00 | B (0.01<B≤0.02) | 5.70 to 6.30 | O[C@@H]1CCCC[C@H]1Nc1nc2ccc(Cc3cnc4cnccn34)cc2s1 [Example 125, (1R,2R)-2-((6-(imidazo[1,2-a]pyrazin-3-ylmethyl)benzo[d]thiazol-2-yl)amino)cyclohexanol] | 5.82 to 6.40
6.00 to 6.70 | A (A≤0.01) | ≥ 7.00 | O[C@@H]1[C@H](O)CCC[C@H]1Nc1nc2ccc(Cn3cnc4cc(OC5COC5)ccc43)cc2s1 [Example 233, (1R,2S,3R)-3-((6-((5-(oxetan-3-yloxy)-1H-benzo[d]imidazol-1-yl)methyl)benzo[d]thiazol-2-yl)amino)cyclohexane-1,2-diol] | 6.40 to 7.30
6.00 to 6.70 | A (A≤0.01) | 6.30 to 7.00 | Cn1nnnc1-c1cnc2c(c1)ncn2Cc1ccc2nc(N[C@@H]3CCCC[C@H]3O)sc2c1 [Example 134, (1R,2R)-2-((6-((6-(1-methyl-1H-tetrazol-5-yl)-3H-imidazo[4,5-b]pyridin-3-yl)methyl)benzo[d]thiazol-2-yl)amino)cyclohexanol] | 6.40 to 7.30
6.00 to 6.70 | A (A≤0.01) | 5.70 to 6.30 | O[C@@H]1CCCC[C@H]1Nc1nc2c(Br)cc(Cn3cnc4cccnc43)cc2s1 [Example 166, (1R,2R)-2-((6-((3H-imidazo[4,5-b]pyridin-3-yl)methyl)-4-bromobenzo[d]thiazol-2-yl)amino)cyclohexanol] | 5.82 to 6.40
5.30 to 6.00 | A (A≤0.01) | 6.30 to 7.00 | O[C@@H]1CCCC[C@H]1Nc1nc2ccc(Cn3cnc4cc(OC(F)(F)F)ccc43)cc2s1 [Example 149, (1R,2R)-2-((6-((5-(trifluoromethoxy)-1H-benzo[d]imidazol-1-yl)methyl)benzo[d]thiazol-2-yl)amino)cyclohexanol] | 6.40 to 7.30
5.30 to 6.00 | A (A≤0.01) | 6.30 to 7.00 | C#Cc1ccc2c(c1)ncn2Cc1ccc2nc(N[C@@H]3CCCC[C@H]3O)sc2c1 [Example 121, (1R,2R)-2-((6-((5-ethynyl-1H-benzo[d]imidazol-1-yl)methyl)benzo[d]thiazol-2-yl)amino)cyclohexanol] | 6.40 to 7.30
6.00 to 6.70 | C (C>0.02) | ≥ 7.00 | O[C@@H]1CCCC[C@H]1Nc1nc2ccc(Cn3cnc4cc(OCCN5CCOCC5)ccc43)cc2s1 [Example 171, (1R,2R)-2-((6-((5-(2-morpholinoethoxy)-1H-benzo[d]imidazol-1-yl)methyl)benzo[d]thiazol-2-yl)amino)cyclohexanol] | 6.40 to 7.30
